Earlier results on 1 molecule are cited in US11702444B2, “Method for preparing natural bioactive peptide Tubulysin U” (Shenzhen Institute of Geriatrics, priority 2020, dated 2023).

pIC50: −log10 of the molar value.

One data set has as its system 1A9 ovarian cancer cells. The conditions noted are these: antiproliferative activity in vitro.
The subject of data set [1] is MCF-7 breast cancer cells. The conditions noted are these: antiproliferative activity in vitro.

In the case of `CC[C@H](C)[C@H](NC(=O)[C@H]1CCCCN1C)C(=O)N[C@H](C[C@@H](OC(C)=O)c1nc(C(=O)N[C@@H](Cc2ccccc2)C[C@H](C)C(=O)O)cs1)C(C)C` [Tubulysin U], the negative logarithm of the IC50 (pIC50) – broadly, −log10 of the IC50, conventionally taken in molar units – in the data set with 1A9 ovarian cancer cells is 9.19; in data set [1], 9.40.
